Reference: patent publication US20240122932A1, “Methods of Treating B-Cell Malignancy Using Bcl-2 Inhibitor” (BeiGene Switzerland GmbH, priority 2021, published 2024)
Entries after “also recorded” stand apart in the source; their conditions may differ.

System: patients with R/R B-cell malignancies
Experiment: phase 1 clinical study: efficacy (response, ALC, SPD)
Type: in vivo, human
Method: A phase 1 study (dose escalation and safety expansion) to determine safety, tolerability, maximum tolerated dose ([…]), and recommended phase 2 dose (RP2D) of Compound 1 in patients with R/R B-cell malignancies was conducted. (Table 6-1A).
Part 1 Monotherapy Ramp-Up Schedule and Dose Finding • 1) Cohort 1A: Cohort 1A consists of patients with relapsed/refractory B-cell non-Hodgkin lymphoma (R/R B-cell NHL) excluding mantle cell lymphoma (MCL). These patients are expected to be at low risk of tumor lysis syndrome (low TLS risk), and are treated with a short ramp-up schedule reaching target dose on Day 3. Patients in this cohort receive escalating doses of Compound 1 monotherapy: 40 mg, 80 mg, 160 mg, 320 mg, and 640 mg (unless adjusted by Safety Monitoring Committee [SMC] recommendation). • 2) Cohort 1B is opened, when ≥1 tolerable dose level of Cohort 1A was determined. It consists of patients with low-tumor-burden R/R CLL/SLL. This cohort pursues dose finding, including evaluation of both ramp-up schedule and target dose. Patients increase the ramp-up dose weekly until the target dose for the cohort is reached. The ramp-up steps is 1 mg, 2 mg, 5 mg, 10 mg, 20 mg, 40 mg, 80 mg, 160 mg, 320 mg, and 640 mg (unless adjusted by SMC recommendation). […]. • 3) Cohort 1C: This Cohort consists of patients with high-tumor-burden R/R chronic lymphocytic leukemia/small lymphocytic lymphoma (R/R CLL/SLL). This cohort will not be dosed until the RP2D for Cohort 1B is established. The objective of this cohort is to confirm, in patients with high-tumor-burden CLL/SLL, the safety of the monotherapy ramp-up schedule and RP2D established in patients with low-tumor-burden CLL/SLL. • 4) Cohort 1D: This Cohort consists of patients with R/R MCL. This cohort will not be dosed until the RP2D for Cohort 1B is established. The objective of this cohort is to confirm, in patients with R/R MCL, the safety of the monotherapy ramp-up schedule and RP2D established in patients with low tumor-burden CLL/SLL. • Cohort 1D′: This Cohort consists of patients with R/R MCL. And, the target dosage are 160 and 320 mg. • 5) Cohort 1E: This Cohort consists of patients with R/R waldenstrom macroglobulinemia (R/R WM). This cohort will not be dosed until the RP2D for Cohort 1B is established. The objective of this cohort is to confirm, in patients with R/R WM, the safety of the monotherapy ramp-up schedule and RP2D established in patients with low tumor-burden CLL/SLL.
The study also includes dose escalation and expansion cohorts for the combination of Compound 1 and Bruton tyrosine kinase (BTK) inhibitor Zanubrutinib in patients with selected B-cell malignancy, such as CLL/SLL and mantle cell lymphoma (MCL). (Table 6-2A). Patients in the combination therapy cohorts receive Zanubrutinib 320 mg daily (160 mg twice a day [BID] or 320 mg once a day [QD]) beginning 8-12 weeks before Compound 1 is introduced. And, the corresponding dose-escalation and expansion are conducted in Part 3 and Part 4):
Dose finding is pursued in Patients with R/R CLL/SLL or R/R MCL who are Bel-2-inhibitor naive and have not progressed on a BTK inhibitor, including evaluation of ramp-up schedule and target dose of Compound 1 when used in combination with Zanubrutinib. The Compound 1 dose vary but the Zanubrutinib dose is fixed at 320 mg/day (160 mg twice daily or 320 mg once daily). The ramp-up dose increases weekly until the target dose for the cohort is reached. The ramp-up steps for Compound 1 are 1 mg, 2 mg, 5 mg, 10 mg, 20 mg, 40 mg, 80 mg, 160 mg, 320 mg, and 640 mg (unless adjusted by SMC recommendation).
In all Cohorts of the phase 1 study, Compound 1 is orally administrated once daily (QD). […]

CC(C)c1ccccc1[C@@H]1CCCN1C1CC2(CCN(c3ccc(C(=O)NS(=O)(=O)c4ccc(NCC5CCC(C)(O)CC5)c([N+](=O)[O-])c4)c(Oc4cnc5[nH]ccc5c4)c3)CC2)C1 (stereo partly drawn) [Compound 1, 2-((1H-pyrrolo[2,3-b]pyridin-5-yl)oxy)-N-((4-((((1r,4r)-4-hydroxy-4-methylcyclohexyl)methyl)amino)-3-nitrophenyl)sulfonyl)-4-(2-((S)-2-(2-isopropylphenyl)pyrrolidin-1-yl)-7-azaspiro[3.5]nonan-7-yl)benzamide]
early response in CLL (CLL/SLL monotherapy, 36-patient data, 80-mg dose level, del (17p) CLL): 1 of 4 patients with CLL reached first response assessment and achieved partial response | patients achieving a response (NHL, monotherapy, 36-patient data, about 5 months of treatment duration, including 1 CR): 2 patients | patients achieving partial response with lymphocytosis (PR-L) or better (monotherapy, R/R CLL/SLL, four of 6 patients, at either 80 or 160 mg): 67% | patients responded (monotherapy, R/R NHL, two of 20 patients, 1 PR at 160 mg and 1 CR at 320 mg): 10% | patients with minor response (monotherapy, R/R WM, one of 2 patients, at 80 mg): 50% | reduction in SPD from baseline (monotherapy, patients with R/R NHL): significant reduction in SPD form baseline were seen in most patients; also recorded: significant reduction in SPD from baseline were seen in most patients | reduction in absolute lymphocyte count (ALC) (patients with CLL during ramp-up, monotherapy and combination therapy, seen at dose levels as low as 1 mg): significant reduction in absolute lymphocyte count (ALC) was noted among all patients with CLL during ramp-up | blood MRD (minimal residual disease) negativity (patients with CLL, monotherapy or combination with Zanubrutinib): negativity was observed in 160 mg cohorts after 6 months treatment but not in 40 mg and 80 mg cohorts
